Results: patent US20190314311A1, “PHARMACEUTICAL COMPOSITION” (JAPAN SCIENCE AND TECHNOLOGY AGENCY, priority 2016, published 2019)

Key:
MJDtr-Q78(S) flies = assay: Drosophila model of the PolyQ diseases (SCA3/MJD); format: in vivo, Drosophila melanogaster
Protocol: The spinocerebellar ataxia type 3 (SCA3/MJD) model flies were used, which express the truncated form of the MJD protein with an abnormally expanded polyQ repeat consisting of 78 glutamines (MJDtr-Q78) in the compound eye (Non-Patent Document 12). The severe compound eye degeneration induced by MJDtrQ78 can be easily detected under the light microscope.
Fly culture and crosses were performed under standard conditions at 25° C. The MJDtr-Q78(S) transgenic fly line bearing the UAS-MJDtr-Q78 transgene for expression of MJDtr-Q78 described in Non-Patent Document 12 was used. The fly line bearing the gmr-GAL4 transgene was obtained from the Drosophila Genetic Resource Center at Kyoto Institute of Technology, Japan. […] For evaluation of compound eye degeneration, light microscopic images of the compound eye were taken using a stereoscopic microscope model “SZX9” (Olympus). For detection of the MJDtr-Q78 protein in eye imaginal discs of third instar larvae, immunostaining with an anti-hemagglutinin antibody (clone 3F10, Roche) was performed according to the method described in Non-Patent Document 13. Fluorescence microscopic images were taken using a confocal laser scanning microscope model “LSM510” (Carl Zeiss).

[1] = tested on: Q40-GFP expressing nematode line; assay: tail-flick test in C. elegans model of the PolyQ diseases; format: in vivo, Caenorhabditis elegans; conditions: 10 mM arginine, 6 days old nematodes, 20° C.
Protocol: (§1) As a C. elegans model of the polyQ diseases, a Q40-GFP expressing nematode line (Non-Patent Document 14), which is a C. elegans line expressing GFP having a polyQ repeat consisting of 40 glutamines (Q40-GFP) was used.
(§2) Nematodes were grown at 20° C. on nematode growth medium (NGM) plates seeded with Escherichia coli OP50. For the generation of the Q40-GFP expression nematode line, plasmids encoding Q40-GFP were injected into wild type strain N2.
Tail-flick tests were performed at 20° C. on nematodes synchronized to 6 days old. First, each nematode was transferred to a separate plate. One drop of S-basal solution was dropped on one nematode, and after waiting for 5 minutes for them to recover, the number of movements of the tail of the worm was measured for 1 minute. The number of movements of the tail was defined as the number of times to change the bending direction of the mid-body of a nematode.

[2] = tested on: Q40-GFP expressing nematode line; assay: lifespan analysis in C. elegans model of the PolyQ diseases; format: in vivo, Caenorhabditis elegans; conditions: 10 mM arginine; log-rank P<0.01
Protocol: as §1, §2
For lifespan analysis, nematodes were cultured on OP50 bacteria, and were examined daily for signs of life.

SCA1 mice [3] = assay: rotarod test, arginine from 3 weeks of age; format: in vivo, mouse; conditions: 6% by weight arginine in drinking water from 3 weeks of age
Text: SCA1 mice express the abnormally expanded polyQ protein (the mutant ataxin 1 protein with polyQ repeats consisting of 154 glutamines) at endogenous levels and with accurate temporal and spatial patterns, and replicates numerous aspects of the human disease including progressive motor deficit. The SCA1 mice used in this experiment were a kind gift from Dr. Kei Watase (Tokyo Medical and Dental University, Japan).
Rotarod tests have been previously utilized for the assessment of motor function in SCA1 mice (Non-Patent Document 15).
For rotarod analysis, mice were tested on an accelerating rotarod apparatus (Ugo Basile) and performed according to the method described in Non-Patent Document 17. The time courses of the amount of walking time until wild type mice and SCA1 mice fell from the rotarod (Latency) are shown in FIG. 17. […] In the figure, values represent means±SEM (n=16-18), “**” represents p<0.01, and “***” represents p<0.001, respectively.

SCA1 mice [4] = assay: immunohistochemical analysis of PolyQ inclusion bodies in brain; format: in vivo, mouse; conditions: 12-week-old SCA1 mice, 6% arginine in drinking water from 3 weeks
Protocol: It was reported that SCA1 mice develop polyQ inclusion bodies (PolyQ protein aggregates) in their neurons of the cerebral cortex and hippocampus from around 4 weeks of age (Non-Patent Document 15).
PolyQ inclusion bodies in brain sections were detected using immunohistochemical analysis. First, ten-micrometer-thick frozen sections of 12 week-old SCA1 mouse brains were prepared according to the method described in Non-Patent Document 17. The sections were blocked in PBS containing 5% goat serum and 0.1% Triton X-100 for 1 hour at room temperature, then incubated with a rabbit anti-ubiquitin antibody (clone FK2, 1:500) at 4° C. overnight, followed by an Alexa Fluor 488-conjugated goat anti-rabbit IgG antibody (1:1,000, Life Technologies) for 1 hour at room temperature. […]
By confocal laser scanning microscopy, inclusion bodies stained with the anti-ubiquitin antibody can be visualized. Therefore, the sections were observed using a confocal laser scanning microscope, cells included in the field of view were counted, and the percentage (%) of the cells in which the inclusion bodies were formed to the total number of cells was measured. In each mouse, the cell count was averaged for 3 fields of view, in which over 130 or 70 cells were counted in the cortex or hippocampus, respectively. […]

SCA1 mice [5] = assay: rotarod test, arginine from 5 weeks of age (after onset); format: in vivo, mouse; conditions: 6% arginine in drinking water from 5 weeks of age; 7 to 19 weeks of age; significant at 15 and 19 weeks
Protocol: An important factor of consideration in developing treatments for neurodegenerative diseases including polyQ diseases is whether the drug exerts its therapeutic effect at the symptomatic phase when the pathological process has already progressed. To date, therapeutic candidates have been administered to polyQ disease mice prophylactically at the pre-symptomatic phase in most preclinical studies.
The rotarod test was carried out in the same manner as in Example 4. The time courses of the amount of walking time until wild type mice and SCA1 mice fell from the rotarod (Latency) are shown in FIG. 21. In the figure, “WT Water”, “WT Arg”, “SCA1 Water”, and “SCA1 Arg” represent the same as in FIG. 17. In the figure, values represent means±SEM (n=23-25), “*” represents p<0.05.

[6] = Non-Patent Documents 3 and 4; cited from earlier work

## N=C(N)NCCC[C@H](N)C(=O)O [arginine]
MJDtr-Q78(S) flies; food containing arginine (100 mM in FIG. 10)
  number of inclusion bodies in eye discs of larvae: decreased
MJDtr-Q78(S) flies; food containing either 25, 50 or 100 mM arginine
  compound eye degeneration: remarkably ameliorated
[1]
  tail movements per minute: significantly improved
[2]
  survival rate: significantly improved
SCA1 mice [3]; 4 to 12 weeks of age
  motor function, rotarod latency: significantly better than the untreated mice
SCA1 mice [3]; until 28 weeks of age
  therapeutic effect on rotarod, duration: remained significant until 28 weeks of age
SCA1 mice [4]
  percentage of cells with inclusion body formation, cerebral cortex: significantly decreased
  percentage of cells with inclusion body formation, hippocampus: significantly decreased
SCA1 mice [5]
  time to walk without falling from the rotarod: longer time to walk without falling from the rotarod than the untreated SCA1 mice
[6]
  safety in clinical trials: safety of arginine has been established
